This is an account of results in patent US10913736B2 (UNIVERSITY OF WASHINGTON, priority 2014, dated 2021).

One assay deals with MetRS (T. brucei) (Trypanosoma brucei brucei, UniProt Q38C91). Kind of assay: MetRS (T. brucei) ATP depletion assay using Kinase-Glo. The format is biochemical. (In Kinase-Glo more light means more ATP remaining.)
For another assay, the system named is T. brucei. Put plainly: Growth inhibition assay of T. brucei cell cultures (Alamar Blue, 48 h). The format is cell-based.
A further assay concerns T. cruzi. Kind of assay: T. cruzi growth inhibition EC50. The format is cell-based. To be noted: Trypanosoma cruzi; read-out: C) T. cruzi EC50.
The target in a further assay is MetRS (S. aureus) (Staphylococcus aureus, UniProt Q5HII6). Put plainly: biochemical. Particulars: ATP depletion, Kinase-Glo; read-out: H) MetRS (S. aureus) ATP depletion assay using Kinase-Glo with modified cpd dilution method, IC50.
MetRS (S. aureus), sequence (Q5HII6 whole entry): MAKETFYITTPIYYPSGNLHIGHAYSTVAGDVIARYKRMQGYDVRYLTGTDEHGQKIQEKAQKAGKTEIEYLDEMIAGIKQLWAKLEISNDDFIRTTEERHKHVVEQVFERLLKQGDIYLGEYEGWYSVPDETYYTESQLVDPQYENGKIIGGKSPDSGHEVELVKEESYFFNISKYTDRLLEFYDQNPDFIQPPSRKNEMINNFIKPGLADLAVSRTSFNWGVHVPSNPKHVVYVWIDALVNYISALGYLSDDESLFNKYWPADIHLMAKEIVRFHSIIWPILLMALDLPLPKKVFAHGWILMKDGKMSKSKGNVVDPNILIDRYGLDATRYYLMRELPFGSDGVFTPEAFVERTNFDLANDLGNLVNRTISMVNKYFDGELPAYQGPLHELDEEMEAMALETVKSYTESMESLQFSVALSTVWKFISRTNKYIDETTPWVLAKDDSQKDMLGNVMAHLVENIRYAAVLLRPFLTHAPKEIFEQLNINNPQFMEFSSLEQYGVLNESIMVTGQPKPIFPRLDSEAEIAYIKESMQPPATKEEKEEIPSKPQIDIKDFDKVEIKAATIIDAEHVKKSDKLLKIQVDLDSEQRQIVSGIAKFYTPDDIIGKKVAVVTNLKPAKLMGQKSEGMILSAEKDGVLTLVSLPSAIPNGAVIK
Where [1] appears, read: Trypanosoma brucei; read-out: B) T. brucei EC50.

Values joined by “and” are separate entries in the source; they are usually repeats but may differ in a detail not shown here. Equal values may be shown once. Read-outs that look alike come from different tables or passages of the source. Some results are limits rather than exact numbers.

MetRS (T. brucei), sequence (Q38C91 entry or part of it): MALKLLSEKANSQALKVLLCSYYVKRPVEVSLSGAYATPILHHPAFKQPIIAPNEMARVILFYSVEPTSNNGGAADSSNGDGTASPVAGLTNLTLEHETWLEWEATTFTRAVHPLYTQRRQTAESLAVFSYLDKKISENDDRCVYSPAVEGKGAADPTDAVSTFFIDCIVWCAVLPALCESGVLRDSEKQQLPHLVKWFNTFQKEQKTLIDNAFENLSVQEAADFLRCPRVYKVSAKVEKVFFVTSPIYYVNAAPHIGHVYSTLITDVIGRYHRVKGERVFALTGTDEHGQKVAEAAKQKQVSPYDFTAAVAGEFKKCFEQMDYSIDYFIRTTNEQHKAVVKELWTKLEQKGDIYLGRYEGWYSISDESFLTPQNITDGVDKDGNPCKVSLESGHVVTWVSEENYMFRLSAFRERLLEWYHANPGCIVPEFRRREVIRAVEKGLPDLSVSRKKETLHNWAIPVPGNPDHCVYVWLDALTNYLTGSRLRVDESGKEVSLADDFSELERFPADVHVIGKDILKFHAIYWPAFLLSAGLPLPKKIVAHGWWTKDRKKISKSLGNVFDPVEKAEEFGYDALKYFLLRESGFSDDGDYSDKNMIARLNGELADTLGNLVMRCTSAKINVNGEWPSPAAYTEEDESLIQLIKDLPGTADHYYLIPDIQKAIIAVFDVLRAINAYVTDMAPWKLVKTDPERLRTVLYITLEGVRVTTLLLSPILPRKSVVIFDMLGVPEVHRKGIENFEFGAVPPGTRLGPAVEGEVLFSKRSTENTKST

Take `Fc1ccc2[nH]c(N3CCC[C@H](NCc4cc(Cl)cc(Cl)c4)C3)nc2n1` [Compound 1900, (S)—N-(3,5-dichlorobenzyl)-1-(5-fluoro-1H-imidazo[4,5-b]pyridin-2-yl)piperidin-3-amine]: the IC50 (usually the concentration needed to halve the response being measured) at MetRS (T. brucei) was determined as 27 nM; on MetRS (S. aureus), 303 nM. For the same molecule, the EC50 (commonly the concentration needed to bring the measured effect to its halfway point) with T. brucei (setting [1]) is 128 nM; in the assay with T. brucei (read-out: B) T. brucei EC50), over 200 nM; in the assay on T. cruzi it was 2240 nM.

On to `COc1ccc(Oc2nc(NCc3nc4ccc(F)nc4[nH]3)nc(NCc3nc4ccc(F)nc4[nH]3)n2)c(Cl)c1` [Compound 1883, 6-(2-chloro-4-methoxyphenoxy)-2-N,4-N-bis({5-fluoro-3H-imidazo[4,5-b]pyridin-2-yl}methyl)-1,3,5-triazine-2,4-diamine], for which the IC50 against MetRS (T. brucei) worked out at 39 nM; at MetRS (S. aureus), 333 nM. In addition, the EC50 was determined as 5620 nM in the assay on T. brucei (setting [1]), 3670 nM in the assay with T. brucei (read-out: B) T. brucei EC50) and 17400 nM in the assay on T. cruzi.

Take `CCN(CCNCc1cc(Cl)cc(Cl)c1)c1nc2nc(Cl)ccc2[nH]1` [Compound 1949, 5-chloro-N-(2-{[(3,5-dichlorophenyl)methyl]amino}ethyl)-N-ethyl-3H-imidazo[4,5-b]pyridin-2-amine]: the concentration for half-maximal inhibition (IC50) on MetRS (T. brucei) is 18 nM; at MetRS (S. aureus) it was 606 nM. The EC50 amounted to 79.9 nM in the assay with T. brucei (setting [1]), 85.5 nM with T. brucei (read-out: B) T. brucei EC50) and 1310 nM in the assay on T. cruzi.

Turning to `CCOc1c(Br)cc(Br)cc1CN[C@H]1CCCN(c2nc3nc(Cl)ccc3[nH]2)C1` [Compound 1910, (S)-1-(5-chloro-1H-imidazo[4,5-b]pyridin-2-yl)-N-(3,5-dibromo-2-ethoxybenzyl)piperidin-3-amine], the half-inhibitory concentration (IC50) against MetRS (T. brucei) came to 19 nM; at MetRS (S. aureus) it was 22 nM. Besides, the EC50 worked out at 39.5 nM with T. brucei (setting [1]) and 934 nM in the assay with T. cruzi.

On to `Clc1cc(Cl)cc(NCC2CCCN(c3nc4nc(Cl)ccc4[nH]3)C2)c1` (centres unmarked) [Compound 1862, 3,5-dichloro-N-((1-(5-chloro-1H-imidazo[4,5-b]pyridin-2-yl)piperidin-3-yl)methyl)aniline], for which the IC50 is 31 nM at MetRS (T. brucei) and 754 nM on MetRS (S. aureus). In addition, the EC50 stood at 343 nM with T. brucei (setting [1]) and 4920 nM in the assay with T. cruzi.

In the case of `Clc1ccc2[nH]c([C@H]3CCCN(Cc4ccc(Cl)c(Cl)c4)C3)nc2n1` [Compound 1870, (S)-5-chloro-2-(1-(3,4-dichlorobenzyl)piperidin-3-yl)-1H-imidazo[4,5-b]pyridine], the values for the IC50 against MetRS (T. brucei) and at MetRS (S. aureus) were 54 nM and 837 nM, respectively. Further, the EC50 in the assay on T. brucei (setting [1]) turned out to be 458 nM; in the assay with T. cruzi it was 2610 nM.

As for `CC(=O)N(CCN(C)c1nc2nc(Cl)ccc2[nH]1)[C@@H]1CCNc2c(Cl)cc(Cl)cc21` [Compound 1938, N-[2-({5-chloro-3H-imidazo[4,5-b]pyridin-2-yl}(methyl)amino)ethyl]-N-[(4R)-6,8-dichloro-1,2,3,4-tetrahydroquinolin-4-yl]acetamide], the IC50 was determined as 36 nM against MetRS (T. brucei) and 1260 nM on MetRS (S. aureus). In addition, the EC50 in the assay with T. cruzi was 266 nM.

As for `Clc1cc(Cl)cc(CNC2CCCN(c3nc4nc(Cl)ccc4[nH]3)C2)c1` (centres unmarked) [Compound 1811, 1-(5-chloro-1H-imidazo[4,5-b]pyridin-2-yl)-N-(3,5-dichlorobenzyl) piperidin-3-amine], the IC50 on MetRS (T. brucei) is 8 nM; at MetRS (S. aureus), 709 nM. Besides, the EC50 with T. brucei (setting [1]) came out at 81.8 nM; in the assay with T. cruzi, 2510 nM.

Regarding `Fc1ccc2[nH]c(N3CCCC(NCc4cc(Cl)cc(Cl)c4)C3)nc2n1` (centres unmarked) [Compound 1886, N-(3,5-dichlorobenzyl)-1-(5-fluoro-1H-imidazo[4,5-b]pyridin-2-yl) piperidin-3-amine], the IC50 at MetRS (T. brucei) is 14 nM; at MetRS (S. aureus), 505 nM. Further, the EC50 is 299 nM with T. brucei (setting [1]) and 5160 nM in the assay on T. cruzi.

Take `NN(C(=O)/C=C/Oc1ccc(Cl)cc1Cl)c1nc2ccccc2[nH]1` [Compound 1766, (2E)-N-(1H-1,3-benzodiazol-2-yl)-3-(2,4-dichlorophenoxy)prop-2-enehydrazide]: the IC50 against MetRS (T. brucei) turned out to be 297 nM. In addition, the EC50 is 3530 nM with T. brucei (setting [1]) and over 5000 nM with T. cruzi.

In turn, `O=C(Cc1cc(Cl)cc(Cl)c1)NCc1nc2ccc(Cl)nc2[nH]1` [Compound 1875, N-({5-chloro-3H-imidazo[4,5-b]pyridin-2-yl}methyl)-2-(3,5-dichlorophenyl)acetamide] had an IC50 against MetRS (T. brucei) of 38 nM. The figures for the 50% effective concentration (EC50) with T. brucei (setting [1]) and in the assay with T. cruzi were 1900 nM and 13100 nM, respectively.

The molecule `Clc1cc(Cl)cc(CNCCNc2nc3ccc(Cl)cc3[nH]2)c1` [Compound 1829, {2-[(6-chloro-1H-1,3-benzodiazol-2-yl)amino]ethyl}[(3,5-dichlorophenyl)methyl]amine] showed an IC50 at MetRS (T. brucei) of 85 nM. Moreover, the values for the EC50 with T. brucei (setting [1]) and with T. cruzi were 539 nM and 3040 nM, respectively.

`COc1ccc(Oc2ccnc(NCc3nc4ccccc4[nH]3)c2)c(Cl)c1` [Compound 1933, N-((1H-benzo[d]imidazol-2-yl)methyl)-4-(2-chloro-4-methoxyphenoxy)pyridin-2-amine]: the IC50 on MetRS (T. brucei) amounted to 22 nM; at MetRS (S. aureus), 40 nM. In addition, the figures for the EC50 in the assay with T. brucei (setting [1]) and with T. cruzi were 102 nM and 1710 nM, respectively.

With `CN(CCN(CCN(C)c1nc2nc(F)ccc2[nH]1)[C@@H]1CCNc2c(Cl)cc(Cl)cc21)c1nc2nc(F)ccc2[nH]1` [Compound 1939, (R)—N1-(6,8-dichloro-1,2,3,4-tetrahydroquinolin-4-yl)-N2-(5-fluoro-1H-imidazo[4,5-b]pyridin-2-yl)-N1-(2-((5-fluoro-1H-imidazo[4,5-b]pyridin-2-yl)(methyl)amino)ethyl)-N2-methylethane-1,2-diamine], the IC50 stood at 73 nM at MetRS (T. brucei) and 271 nM at MetRS (S. aureus). Also, in the assay with T. cruzi, the EC50 was determined as 176 nM.

Consider `N#Cc1c(NCCCNCc2cc(Cl)cc(Cl)c2)[nH]c2cccnc12` [Compound 1627, 2-(3-(3,5-dichlorobenzylamino)propylamino)-1H-pyrrolo[3,2-b]pyridine-3-carbonitrile], for which, at MetRS (T. brucei), the IC50 was 61 nM. Also, the figures for the EC50 in the assay with T. brucei (setting [1]), in the assay with T. brucei (read-out: B) T. brucei EC50) and in the assay with T. cruzi were over 9.08 nM, 4.6 nM and 623 nM, respectively.

For `Clc1cc(Cl)c2c(c1)C(N[C@H]1CCCN(c3nc4nc(Cl)ccc4[nH]3)C1)CCN2` (stereo partly drawn) [Compound 1899, 6,8-dichloro-N—((S)-1-(5-chloro-1H-imidazo[4,5-b]pyridin-2-yl)piperidin-3-yl)-1,2,3,4-tetrahydroquinolin-4-amine], the IC50 amounted to 89 nM against MetRS (T. brucei) and 323 nM at MetRS (S. aureus). In addition, the EC50 in the assay with T. cruzi is 260 nM.

With `Clc1cc(Cl)cc(CNC2CCCC(c3nc4nc(Cl)ccc4[nH]3)C2)c1` (centres unmarked) [Compound 1788, 3-(5-chloro-1H-imidazo[4,5-b]pyridin-2-yl)-N-(3,5-dichlorobenzyl)cyclohexanamine], the IC50 against MetRS (T. brucei) turned out to be 124 nM. Moreover, the EC50 came out at 359 nM in the assay with T. brucei (setting [1]) and 4170 nM with T. cruzi.

In the case of `CC(=O)N(Cc1cc(Cl)cc(Cl)c1)C1CCCC(c2nc3nc(Cl)ccc3[nH]2)C1` (centres unmarked) [Compound 1789, N-(3-(5-chloro-1H-imidazo[4,5-b]pyridin-2-yl)cyclohexyl)-N-(3,5-dichlorobenzyl)acetamide], inhibition against MetRS (T. brucei) was half-maximal at 89 nM (IC50). The EC50 was determined as 2810 nM with T. brucei (setting [1]) and 4990 nM with T. cruzi.

For `CC(Cc1nc2ccc(Cl)cc2[nH]1)NCc1cc(Cl)cc(Cl)c1` (centres unmarked) [Compound 1794, [1-(5-chloro-1H-1,3-benzodiazol-2-yl)propan-2-yl][(3,5-dichlorophenyl)methyl]amine], the IC50 on MetRS (T. brucei) is 31 nM and 17 nM and 72 nM and 70 nM; on MetRS (S. aureus), 22600 nM. The EC50 in the assay with T. brucei (setting [1]) was 1330 nM; in the assay with T. brucei (read-out: B) T. brucei EC50) it was 1870 nM and 1840 nM; with T. cruzi, 5230 nM.

On MetRS (T. brucei), `Clc1ccc(CNC2CCCC(c3nc4nc(Cl)ccc4[nH]3)C2)c(Cl)c1` (centres unmarked) [Compound 1809, 3-(5-chloro-1H-imidazo[4,5-b]pyridin-2-yl)-N-(2,4-dichlorobenzyl) cyclohexanamine] came in with an IC50 of 43 nM. Moreover, the results for the EC50 with T. brucei (setting [1]) and in the assay with T. cruzi were 821 nM and 3460 nM, respectively.

On to `CC(=O)N(CCN(C)c1nc2ccc(Cl)nc2[nH]1)Cc1cc(Cl)cc(Cl)c1` [Compound 1926, N-(3,5-dichlorobenzyl)-N-(2-(5-chloro-N-methyl-1H-imidazo[4,5-b]pyridin-2-ylamino)ethyl)acetamide], for which the IC50 on MetRS (T. brucei) is 20 nM; on MetRS (S. aureus), 172 nM. Moreover, the values for the EC50 in the assay with T. brucei (setting [1]) and with T. cruzi were 75.5 nM and 1330 nM, respectively.

For the molecule `O=C1N[C@@H](Cc2ccc(Cl)cc2Cl)C(=O)N1Cc1nc2ccccc2[nH]1` [Compound 1754, (S)-3-((1H-benzo[d]imidazol-2-yl)methyl)-5-(2,4-dichlorobenzyl)imidazolidine-2,4-dione], the IC50 on MetRS (T. brucei) is over 10000 nM. Further, the 50% effective concentration (EC50) with T. brucei (setting [1]) was 5890 nM; in the assay on T. cruzi, over 5000 nM.

Take `COc1ccc(Oc2nc(NCc3nc4ccc(F)nc4[nH]3)nc(Oc3ccc(OC)cc3Cl)n2)c(Cl)c1` [Compound 1884, 4,6-bis(2-chloro-4-methoxyphenoxy)-N-({5-fluoro-3H-imidazo[4,5-b]pyridin-2-yl}methyl)-1,3,5-triazin-2-amine]: the IC50 against MetRS (T. brucei) was 24 nM; on MetRS (S. aureus) it was 122 nM. The values for the EC50 with T. brucei (setting [1]) and in the assay with T. cruzi were 55.9 nM and 773 nM, respectively.

On to `N#Cc1cc(Cl)cc(CN[C@H]2CCCN(c3nc4nc(Cl)ccc4[nH]3)C2)c1` [Compound 1992, (S)-3-chloro-5-(((1-(5-chloro-1H-imidazo[4,5-b]pyridin-2-yl)piperidin-3-yl)amino)methyl)benzonitrile], for which it took 14 nM to reach half-maximal inhibition on MetRS (T. brucei) (IC50). Further, the 50% effective concentration (EC50) was 111 nM with T. brucei (setting [1]) and 2130 nM in the assay with T. cruzi.

Regarding `CC(=O)N(CCCc1nc2nc(F)ccc2[nH]1)Cc1cc(Cl)cc(Cl)c1` [Compound 1835, N-(3,5-dichlorobenzyl)-N-(3-(5-fluoro-1H-imidazo[4,5-b]pyridin-2-yl)propyl)acetamide], inhibition at MetRS (T. brucei) was half-maximal at 23 nM (IC50). Besides, the EC50 was 873 nM in the assay on T. brucei (setting [1]) and over 20000 nM in the assay on T. cruzi.
